From ChEMBL document CHEMBL5335794, “Discovery of novel multifunctional ligands targeting GABA transporters, butyrylcholinesterase, β-secretase, and amyloid β aggregation as potential treatment of Alzheimer's disease” (Eur J Med Chem, 2023)
Active and inactive are the calls of the source. The rule behind the calls is not given here.

Assays:
GABA transporter 4 [1] = biological target: T1, GABA transporter 4 (Mus musculus, UniProt P31650); assay: Inhibition of mouse GAT4 transfected in HEK293 cells assessed as reduction in [3H]-GABA uptake; format: cell-based
T1 sequence (P31650 whole entry): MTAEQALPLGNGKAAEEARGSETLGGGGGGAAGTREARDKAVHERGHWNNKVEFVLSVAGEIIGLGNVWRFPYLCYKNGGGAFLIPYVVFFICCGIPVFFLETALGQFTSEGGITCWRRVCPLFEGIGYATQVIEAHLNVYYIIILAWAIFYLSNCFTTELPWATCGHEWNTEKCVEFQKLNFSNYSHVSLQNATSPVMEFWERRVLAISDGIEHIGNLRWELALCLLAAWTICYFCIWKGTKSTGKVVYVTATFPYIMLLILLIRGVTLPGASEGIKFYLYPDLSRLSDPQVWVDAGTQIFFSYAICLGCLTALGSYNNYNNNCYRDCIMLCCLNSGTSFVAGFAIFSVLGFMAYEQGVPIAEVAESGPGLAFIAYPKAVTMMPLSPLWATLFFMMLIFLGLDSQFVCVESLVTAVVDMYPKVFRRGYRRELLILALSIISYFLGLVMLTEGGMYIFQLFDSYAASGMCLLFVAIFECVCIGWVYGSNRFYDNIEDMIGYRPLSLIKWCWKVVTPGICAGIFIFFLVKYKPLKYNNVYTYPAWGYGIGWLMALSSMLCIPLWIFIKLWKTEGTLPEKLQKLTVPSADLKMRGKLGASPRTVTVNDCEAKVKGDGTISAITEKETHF

[2] = biological target: T2, Sodium- and chloride-dependent GABA transporter 1 (Mus musculus, UniProt P31648); assay: Inhibition of mouse GAT1 expressed in HEK293 cells assessed as reduction in [3H]-GABA uptake; format: cell-based
[3] = biological target: T3, GABA transporter 2 (Mus musculus) (UniProt P31651); assay: Inhibition of mouse GAT2 transfected in HEK293 cells assessed as reduction in [3H]-GABA uptake by measuring residual activity at 100 uM relative to control; format: cell-based
T3 sequence (whole entry): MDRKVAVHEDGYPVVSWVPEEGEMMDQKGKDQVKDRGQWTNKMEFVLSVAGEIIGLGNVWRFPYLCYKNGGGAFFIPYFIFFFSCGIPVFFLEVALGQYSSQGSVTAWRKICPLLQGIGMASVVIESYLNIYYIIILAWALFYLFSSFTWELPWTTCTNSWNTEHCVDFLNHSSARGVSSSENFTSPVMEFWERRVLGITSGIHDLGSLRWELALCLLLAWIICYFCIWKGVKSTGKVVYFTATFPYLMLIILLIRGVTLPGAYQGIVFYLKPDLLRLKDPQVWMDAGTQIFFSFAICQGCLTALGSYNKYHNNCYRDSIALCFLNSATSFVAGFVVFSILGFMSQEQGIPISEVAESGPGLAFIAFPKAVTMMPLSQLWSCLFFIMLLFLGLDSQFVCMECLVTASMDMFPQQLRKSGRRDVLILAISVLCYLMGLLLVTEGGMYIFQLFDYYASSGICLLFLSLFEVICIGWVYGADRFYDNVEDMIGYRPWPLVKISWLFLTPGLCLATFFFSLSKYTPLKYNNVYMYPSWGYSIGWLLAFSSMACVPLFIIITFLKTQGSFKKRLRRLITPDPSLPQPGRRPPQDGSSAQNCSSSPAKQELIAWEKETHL

HEK293 [4] = assay: Inhibition of mouse GAT3 transfected in HEK293 cells assessed as reduction in [3H]-GABA uptake by measuring residual activity at 100 uM relative to control; format: cell-based
HepG2 = assay: Cytotoxicity against human HepG2 cells assessed as reduction in cell viability at 0.1 to 1 uM incubated for 72 hrs by MTS assay; format: toxicity, cell-based; settings: hepg2, 72 h, dose 0.1-1 µM
[5] = biological target: Amyloid-beta precursor protein (Homo sapiens) (UniProt P05067); assay: Inhibition of soluble amyloid beta40 (unknown origin) aggregation assessed as nucleation constant at 10 uM measured after 24 hrs by ThT fluorescence based assay (reference value: […] 10^-4/min)
Chain of Amyloid-beta precursor protein (Homo sapiens) (P05067 whole entry): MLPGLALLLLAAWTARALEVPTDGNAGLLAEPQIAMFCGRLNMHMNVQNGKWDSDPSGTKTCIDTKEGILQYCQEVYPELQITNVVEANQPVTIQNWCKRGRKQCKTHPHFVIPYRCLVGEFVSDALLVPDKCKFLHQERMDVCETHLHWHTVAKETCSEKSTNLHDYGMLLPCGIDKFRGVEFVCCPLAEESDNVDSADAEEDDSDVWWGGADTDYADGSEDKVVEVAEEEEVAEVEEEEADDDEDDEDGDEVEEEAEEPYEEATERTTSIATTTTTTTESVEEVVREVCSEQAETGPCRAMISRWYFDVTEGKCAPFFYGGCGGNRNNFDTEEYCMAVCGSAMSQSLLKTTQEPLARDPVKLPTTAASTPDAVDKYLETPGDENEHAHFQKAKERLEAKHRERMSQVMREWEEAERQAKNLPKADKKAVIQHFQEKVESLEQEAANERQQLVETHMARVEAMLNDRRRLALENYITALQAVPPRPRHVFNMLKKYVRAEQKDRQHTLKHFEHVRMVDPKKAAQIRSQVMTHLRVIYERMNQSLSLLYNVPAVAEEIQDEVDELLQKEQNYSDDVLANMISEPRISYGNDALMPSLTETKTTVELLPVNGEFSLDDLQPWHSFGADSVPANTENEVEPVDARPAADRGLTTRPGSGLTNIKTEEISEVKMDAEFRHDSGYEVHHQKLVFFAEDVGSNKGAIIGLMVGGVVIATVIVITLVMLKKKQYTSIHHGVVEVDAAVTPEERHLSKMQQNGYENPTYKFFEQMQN

Mus musculus [6] = assay: (§1) Cognitive enhancing activity in Albino Swiss (CD-1) mouse model of scopolamine induced cognitive dysfunction and amnesia assessed as prolongation of step-through latency in retention trail at 10 mg/kg, ip pretreated for 30 mins followed by scopolamine administration and measured after 30 mins by passive avoidance test; format: functional, organism-based; settings: time 60.0 min
[7] = biological target: Amyloid-beta precursor protein (Homo sapiens) (UniProt P05067); assay: Inhibition of amyloid beta40 (unknown origin) aggregation at 10 uM measured every 5 mins by ThT fluorescence based assay relative to control
[8] = biological target: Amyloid-beta precursor protein (Homo sapiens) (UniProt P05067); assay: Inhibition of soluble amyloid beta40 (unknown origin) aggregation assessed as lag time of amyloid polymerization at 10 uM measured after 24 hrs by ThT fluorescence based assay (reference value: […] min)
Beta-secretase 1 = Beta-secretase 1 (Homo sapiens, UniProt P56817)
Chain of Beta-secretase 1 (P56817 whole entry): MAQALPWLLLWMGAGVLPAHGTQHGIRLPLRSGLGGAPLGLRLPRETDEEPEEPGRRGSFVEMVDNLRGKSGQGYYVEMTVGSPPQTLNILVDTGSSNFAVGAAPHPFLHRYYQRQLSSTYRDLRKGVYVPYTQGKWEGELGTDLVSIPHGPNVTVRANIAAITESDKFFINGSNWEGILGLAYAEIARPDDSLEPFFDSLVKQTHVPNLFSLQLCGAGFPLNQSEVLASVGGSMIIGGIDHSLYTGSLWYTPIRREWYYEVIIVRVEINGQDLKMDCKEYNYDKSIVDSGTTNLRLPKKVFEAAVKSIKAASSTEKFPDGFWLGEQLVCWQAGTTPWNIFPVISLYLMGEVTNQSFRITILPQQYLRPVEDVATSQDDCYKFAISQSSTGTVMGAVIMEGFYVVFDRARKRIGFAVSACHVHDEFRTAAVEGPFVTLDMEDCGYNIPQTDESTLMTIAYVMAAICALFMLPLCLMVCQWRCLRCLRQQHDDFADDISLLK

HEK293 [9] = assay: Cytotoxicity against HEK293 cells assessed as reduction in cell viability at 0.1 to 1 uM incubated for 72 hrs by MTS assay; format: toxicity, cell-based; settings: human, hek293, 72 h, dose 0.1-1 µM
Cholinesterase = Cholinesterase (Equus caballus, UniProt P81908)
Chain of Cholinesterase (P81908 whole entry): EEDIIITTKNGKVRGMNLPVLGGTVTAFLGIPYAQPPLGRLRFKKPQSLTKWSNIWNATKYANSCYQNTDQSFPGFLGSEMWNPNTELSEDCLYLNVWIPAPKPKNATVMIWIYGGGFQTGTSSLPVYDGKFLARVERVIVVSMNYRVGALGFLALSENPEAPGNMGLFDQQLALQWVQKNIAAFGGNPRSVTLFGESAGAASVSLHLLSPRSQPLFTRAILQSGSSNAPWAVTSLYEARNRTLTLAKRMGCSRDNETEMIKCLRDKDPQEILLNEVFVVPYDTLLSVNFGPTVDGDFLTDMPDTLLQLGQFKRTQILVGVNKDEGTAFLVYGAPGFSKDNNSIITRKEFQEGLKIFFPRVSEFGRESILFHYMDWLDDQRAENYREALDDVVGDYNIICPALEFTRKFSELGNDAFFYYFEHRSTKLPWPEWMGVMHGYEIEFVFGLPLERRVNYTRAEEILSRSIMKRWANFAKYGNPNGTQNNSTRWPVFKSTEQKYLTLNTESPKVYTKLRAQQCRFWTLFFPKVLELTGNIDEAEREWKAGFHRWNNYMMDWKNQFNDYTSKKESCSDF
Description: Inhibition of equine serum BuChE using butyrylthiocholine iodide as substrate preincubated for 5 mins followed by substrate addition and measured after 5 mins by DTNB reagent based Ellman's method

[10] = Inhibition of mouse GAT3 transfected in HEK293 cells assessed as reduction in [3H]-GABA uptake preincubated for 25 mins followed by [3H]-GABA addition and measured after 4 mins by liquid scintillation counting analysis; format: cell-based; settings: HEK293; read-out: pIC50 (converted)
GABA transporter 2 [11] = biological target: T4, GABA transporter 2 (Mus musculus, UniProt P31651); assay: Inhibition of mouse GAT2 transfected in HEK293 cells assessed as reduction in [3H]-GABA uptake preincubated for 25 mins followed by [3H]-GABA addition and measured after 10 mins by liquid scintillation counting analysis; format: cell-based; settings: read-out: pIC50 (converted)
T4 sequence (P31651 whole entry): T3 sequence (whole entry)

[12] = biological target: Amyloid-beta precursor protein (Homo sapiens) (UniProt P05067); assay: Inhibition of soluble amyloid beta40 (unknown origin) aggregation at 10 uM measured after 24 hrs by ThT fluorescence based assay relative to control
[13] = biological target: Amyloid-beta precursor protein (Homo sapiens) (UniProt P05067); assay: Inhibition of amyloid beta42 (unknown origin) aggregation expressed in Escherichia coli BL21 (DE3) at 10 uM measured every 5 mins by ThT fluorescence based assay relative to control
GABA transporter 4 [14] = biological target: T1, GABA transporter 4; assay: Inhibition of mouse GAT4 transfected in HEK293 cells assessed as reduction in [3H]-GABA uptake preincubated for 25 mins followed by [3H]-GABA addition and measured after 4 mins by liquid scintillation counting analysis; format: cell-based; settings: read-out: pIC50 (converted)
Mus musculus [15] = assay: Cognitive enhancing activity in Albino Swiss (CD-1) mouse model of scopolamine induced memory deficits and amnesia assessed as increase in discrimination index at 30 mg/kg, ip pretreated for 30 mins followed by scopolamine administration and measured after 30 mins by Novel object recognition test; format: functional, organism-based; settings: time 60.0 min
[16] = biological target: Amyloid-beta precursor protein (Homo sapiens) (UniProt P05067); assay: Inhibition of soluble amyloid beta40 (unknown origin) aggregation assessed as end time of amyloid polymerization at 10 uM measured after 24 hrs by ThT fluorescence based assay (reference value: […] min)
[17] = biological target: Cholinesterase (Equus caballus) (UniProt P81908); assay: Mixed type inhibition of equine serum BuChE using varying concentrations of butyrylthiocholine iodide as substrate preincubated for 5 mins followed by substrate addition and measured after 5 mins by Ellman's method based Cornish-Bowden plot analysis; settings: time 10.0 min
Chain of Cholinesterase (Equus caballus) (P81908 whole entry): as above

[18] = biological target: Amyloid-beta precursor protein (Homo sapiens) (UniProt P05067); assay: Inhibition of soluble amyloid beta40 (unknown origin) aggregation assessed as elongation constant at 10 uM measured after 24 hrs by ThT fluorescence based assay (reference value: […] /M/min)
Mus musculus [19] = assay: as §1, with “acquisition phase” for “retention trail”; format: functional, organism-based; settings: time 60.0 min
[20] = biological target: Cholinesterase (Equus caballus) (UniProt P81908); assay: Mixed type inhibition of equine serum BuChE using varying concentrations of butyrylthiocholine iodide as substrate preincubated for 5 mins followed by substrate addition and measured after 5 mins by Ellman's method based Lineweaver-Burk plot analysis; settings: time 10.0 min
Mus musculus [21] = assay: as §1, with “30” for “10”; format: functional, organism-based; settings: time 60.0 min
[22] = biological target: Amyloid-beta precursor protein (Homo sapiens) (UniProt P05067); assay: Inhibition of soluble amyloid beta40 (unknown origin) aggregation assessed as inhibition of fibril elongation by measuring fold reduction in elongation ratio at 10 uM measured after 24 hrs by ThT fluorescence based assay
[23] = biological target: T2, Sodium- and chloride-dependent GABA transporter 1; assay: Inhibition of mouse GAT1 transfected in HEK293 cells assessed as reduction in [3H]-GABA uptake preincubated for 25 mins followed by [3H]-GABA addition and measured after 4 mins by liquid scintillation counting analysis; format: cell-based; settings: read-out: pIC50 (converted)
[24] = biological target: Sodium- and chloride-dependent GABA transporter 1 (Mus musculus) (UniProt P31648); assay: Inhibition of NO 711 marker binding to mouse GAT1 assessed as residual activity at 100 uM by LC-ESI-MS/MS based competitive MS binding assay relative to control
[25] = biological target: Amyloid-beta precursor protein (Homo sapiens) (UniProt P05067); assay: Inhibition of soluble amyloid beta40 (unknown origin) aggregation assessed as time of half-aggregation at 10 uM measured after 24 hrs by ThT fluorescence based assay (reference value: […] min)
[26] = biological target: Acetylcholinesterase (Electrophorus electricus) (UniProt O42275); assay: Inhibition of electric eel AChE using acetylthiocholine iodide as substrate at 10 uM preincubated for 5 mins followed by substrate addition and measured after 5 mins by DTNB reagent based Ellman's method relative to control; settings: time 10.0 min
Chain of Acetylcholinesterase (Electrophorus electricus) (O42275 24-633 limits assumed): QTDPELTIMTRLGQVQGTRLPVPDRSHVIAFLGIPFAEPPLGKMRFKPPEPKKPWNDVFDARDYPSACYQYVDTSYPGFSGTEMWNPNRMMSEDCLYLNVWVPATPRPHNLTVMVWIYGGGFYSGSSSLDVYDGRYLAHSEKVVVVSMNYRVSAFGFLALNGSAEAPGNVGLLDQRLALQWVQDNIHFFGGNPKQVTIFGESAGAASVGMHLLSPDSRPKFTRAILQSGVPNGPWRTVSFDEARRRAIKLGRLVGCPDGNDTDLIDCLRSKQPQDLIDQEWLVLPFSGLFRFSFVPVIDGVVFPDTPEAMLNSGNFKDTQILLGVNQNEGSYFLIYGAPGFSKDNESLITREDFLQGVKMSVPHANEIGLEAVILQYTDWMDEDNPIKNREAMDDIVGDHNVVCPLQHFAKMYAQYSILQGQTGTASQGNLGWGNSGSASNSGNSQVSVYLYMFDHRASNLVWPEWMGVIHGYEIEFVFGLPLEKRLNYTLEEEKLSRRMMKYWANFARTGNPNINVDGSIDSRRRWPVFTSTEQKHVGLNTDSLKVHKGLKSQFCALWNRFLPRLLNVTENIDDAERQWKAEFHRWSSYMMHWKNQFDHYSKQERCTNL

GABA transporter 2 [27] = biological target: T4, GABA transporter 2; assay: Inhibition of mouse GAT2 transfected in HEK293 cells assessed as reduction in [3H]-GABA uptake; format: cell-based
[28] = Inhibition of mouse GAT3 transfected in HEK293 cells assessed as reduction in [3H]-GABA uptake; format: cell-based
[29] = biological target: T2, Sodium- and chloride-dependent GABA transporter 1; assay: Inhibition of NO 711 marker binding to mouse GAT1 by LC-ESI-MS/MS based competitive MS binding assay
[30] = biological target: Amyloid-beta precursor protein (Homo sapiens) (UniProt P05067); assay: Inhibition of soluble amyloid beta40 (unknown origin) aggregation assessed as fold reduction in nucleation ratio at 10 uM measured after 24 hrs by ThT fluorescence based assay
Mus musculus [31] = assay: as §1, with “10 to 30” for “10”; format: functional, organism-based; settings: dose 10-30 mg/kg, time 60.0 min
Mus musculus [32] = assay: as §1, with “acquisition phase” for “retention trail”, “30” for “10”; format: functional, organism-based; settings: time 60.0 min

SMILES | IC50 (GABA transporter 4 [1]) [µM] | IC50 ([2]; read-out: IC50) [µM] | Activity (HepG2) | K [5] | inhibition [7] [%] | TIME [8] [h] | IC50 (Beta-secretase 1) [µM] | Activity (HEK293 [9]) | IC50 (Cholinesterase) [µM] | IC50 [10] [µM] | IC50 (GABA transporter 2 [11]) [µM] | inhibition [12] [%] | inhibition [13] [%] | IC50 (GABA transporter 4 [14]) [µM] | Activity (Mus musculus [15]) | TIME [16] [h] | K [18] [M⁻¹ s⁻¹] | fold change (FC) [22] | IC50 [23] [µM] | T1/2 [25] [h] | other results
O=C(O)C1=CN(CC/C=C/c2ccccc2-c2ccc(Cl)cc2Cl)CCC1 | 63.1 | 0.037 | – | – | – | – | – | – | – | – | – | – | – | – | – | – | – | – | – | – | Activity [3]: 73%; Activity (HEK293 [4]): 91%
CN(CCOCCn1c2ccccc2c2ccccc21)C(CCN)C(=O)NCc1ccccc1 (configuration not stated) | – | – | Non-Toxic | 1.34 10^-4/min | 78.9 | 0.792 | 9.42 | Non-Toxic | 0.173 | 15.1 | 15.8 | 78.6 | 31.7 | 25.1 | inactive | 2.09 | 117 | 2 | 30.9 | 1.44 | Activity (Mus musculus [6]): inactive; inhibition [17]: Active; Activity (Mus musculus [19]): Active; inhibition [20]: Active; Activity (Mus musculus [21]): Active; Activity [24]: 71%; inhibition [26]: < 10%
O=C(O)C1=CN(CC/C=C/c2ccccc2-c2ccccc2)CCC1 | 288 | 0.062 | – | – | – | – | – | – | – | – | – | – | – | – | – | – | – | – | – | – | IC50 ([2]; read-out: pIC50 (converted)): 0.162 µM; IC50 (GABA transporter 2 [27]): 135 µM; IC50 [28]: 324 µM
CN(CCOCCN1c2ccccc2Sc2ccccc21)C(CCN)C(=O)NCc1ccc(Cl)cc1 (configuration not stated) | – | – | Non-Toxic | 4.04 10^-4/min | 98.5 | 2.91 | 1.57 | Non-Toxic | 0.559 | 6.31 | 12.3 | 85.5 | 34.6 | 12 | Active | 6.46 | 74.1 | 2 | 9.77 | 4.68 | Ki [29]: 45.7 µM; fold change (FC) [30]: 11; Activity (Mus musculus [31]): inactive; Activity (Mus musculus [32]): Active; inhibition [26]: 42%
